In patent publication US6472418B1, “Non-peptide NK1 receptors antagonists” (Warner-Lambert Company, priority 1998, dated 2002):

Each molecule was assayed against T1, Human NK1 Receptor (Homo sapiens, UniProt P25103) (assay: In Vitro Human NK1 Receptor Binding Assay ([125I]Bolton-Hunter substance P displacement, IM9 cells)). Details: Human lymphoma IM9 cells, [125I]Bolton-Hunter substance P (0.05-0.1 nM), 50 min at 21° C.; Table 1; read-out: NK1 binding IC50.
T1 construct: endogenous in cells; host or cells: Human lymphoma IM9 cells (whole cells)
T1 sequence (P25103 whole entry): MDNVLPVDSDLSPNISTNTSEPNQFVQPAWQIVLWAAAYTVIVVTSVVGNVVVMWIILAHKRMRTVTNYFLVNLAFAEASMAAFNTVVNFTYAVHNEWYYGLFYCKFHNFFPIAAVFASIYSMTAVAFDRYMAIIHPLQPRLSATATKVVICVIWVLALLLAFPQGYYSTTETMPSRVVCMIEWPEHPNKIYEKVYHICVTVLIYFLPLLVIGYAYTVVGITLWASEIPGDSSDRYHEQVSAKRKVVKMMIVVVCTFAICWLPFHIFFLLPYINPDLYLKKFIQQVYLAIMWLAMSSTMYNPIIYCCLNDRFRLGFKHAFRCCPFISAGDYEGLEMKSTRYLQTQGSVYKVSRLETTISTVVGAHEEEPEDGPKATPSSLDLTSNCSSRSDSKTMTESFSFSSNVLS
Method in brief: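 Radioligand displacement on whole IM9 human lymphoma cells (2.5×10^6 cells/mL) using [125I]Bolton-Hunter substance P (0.05-0.1 nM), 50 min at 21° C in Tris pH 7.4/MnCl2 buffer with protease inhibitors. Non-specific binding defined by […] [Sar9, Met(O2)11] substance P. Filtration, gamma counting, iterative curve fitting.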
In the case of `Cc1cc(CN[C@H](Cc2c[nH]c3ccccc23)C(=O)N[C@@H](C)c2ccccc2)oc1C` (relative stereo) [Example 8, 2-[(4,5-Dimethyl-furan-2-ylmethyl)-amino]-3-(1H-indol-3-yl)-N-(1-phenyl-ethyl)-propionamide, [R-(R*,S*)]], the IC50 is reported as 27 nM.
With `C[C@H](NC(=O)[C@@H](Cc1c[nH]c2ccccc12)NCc1cccc(C#N)c1)c1ccccc1` (relative stereo) [Example 14, 2-(3-Cyano-benzylamino)-3-(1H-indol-3-yl)-N-(1-phenyl-ethyl)-propionamide, [R-(R*,S*)]] the IC50 was 4.7 nM.

Same assay, conditions: Human lymphoma IM9 cells, [125I]Bolton-Hunter substance P; Table 3, array-synthesis products; read-out: IC50 (nM) hNK1
For `CC(C)(NC(=O)C(Cc1c[nH]c2ccccc12)NCc1cc2ccccc2o1)C1CCCCC1` (stereo not shown) [Example 225, 2-[(Benzofuran-2-ylmethyl)-amino]-N-(1-cyclohexyl-1-methyl-ethyl)-3-(1H-indol-3-yl)-propionamide], the IC50 was 1340 nM.
With `COc1cccc(CCNC(=O)C(Cc2c[nH]c3ccccc23)NCc2cc3ccccc3o2)c1` (stereo not shown) [Example 291, 2-[(Benzofuran-2-ylmethyl)-amino]-3-(1H-indol-3-yl)-N-[2-(3-methoxy-phenyl)-ethyl]-propionamide] the IC50 was 1340 nM.
Work on `O=C(NCc1cccc(O)c1)C(Cc1c[nH]c2ccccc12)NCc1cc2ccccc2o1` (stereo not shown) [Example 308, 2-[(Benzofuran-2-ylmethyl)-amino]-N-(3-hydroxy-benzyl)-3-(1H-indol-3-yl)-propionamide] yielded an IC50 of 731 nM.
`O=C(NCc1ccccc1F)C(Cc1c[nH]c2ccccc12)NCc1cc2ccccc2o1` (stereo not shown) [Example 238, 2-[(Benzofuran-2-ylmethyl)-amino]-N-(2-fluoro-benzyl)-3-(1H-indol-3-yl)-propionamide] gave an IC50 of 89 nM.
Work on `O=C(NCc1cccs1)C(Cc1c[nH]c2ccccc12)NCc1cc2ccccc2o1` (stereo not shown) [Example 232, 2-[(Benzofuran-2-ylmethyl)-amino]-3-(1H-indol-3-yl)-N-thiophen-2-ylmethyl-propionamide] yielded an IC50 of 63 nM.
In the case of `O=C(NCCCn1ccnc1)C(Cc1c[nH]c2ccccc12)NCc1cc2ccccc2o1` (stereo not shown) [Example 201, 2-[(Benzofuran-2-ylmethyl)-amino]-N-(3-imidazol-1-yl-propyl)-3-(1H-indol-3-yl)-propionamide], the IC50 is reported as greater than 10000 nM.
For `O=C(NCC1CCNCC1)C(Cc1c[nH]c2ccccc12)NCc1cc2ccccc2o1` (stereo not shown) [Example 203, 2-[(Benzofuran-2-ylmethyl)-amino]-3-(1H-indol-3-yl)-N-piperidin-4-ylmethyl-propionamide], the IC50 was greater than 10000 nM.
With `O=C(NCc1cccnc1)C(Cc1c[nH]c2ccccc12)NCc1cc2ccccc2o1` (stereo not shown) [Example 231, 2-[(Benzofuran-2-ylmethyl)-amino]-3-(1H-indol-3-yl)-N-pyridin-3-ylmethyl-propionamide] the IC50 was 790 nM.

Same assay, conditions: Table 4; [125I]Bolton-Hunter substance P displacement, human IM9 cells; read-out: IC50 (nM) hNK1
Molecule `CC(NC(=O)C(C)(Cc1c[nH]c2ccccc12)NCc1ccc(Oc2ccccc2)cc1)c1ccccc1` (stereo not shown) [compound 347, 3-(1H-Indol-3-yl)-2-methyl-2-(4-phenoxy-benzylamino)-N-(1-phenyl-ethyl)-propionamide] has an IC50 of 3380 nM.
“4-{[2-(1H-Indol-3-yl)-1-methyl-1-(1-phenyl-ethylcarbamoyl)-ethylamino]-methyl}-benzoic acid methyl ester [compound 337]” showed an IC50 of 1920 nM.

Same assay, conditions: Table 5; [125I]Bolton-Hunter substance P displacement, human IM9 cells; read-out: IC50 (nM) hNK1
`CC(NC(=O)C(Cc1c[nH]c2ccccc12)NCCCc1ccccc1)c1ccccc1` (stereo not shown) [compound 403] gave an IC50 of 3910 nM.
With `CC(NC(=O)C(Cc1c[nH]c2ccccc12)NCc1cc(F)cc(F)c1)c1ccccc1` (stereo not shown) [compound 399] the IC50 was 140 nM.

Same assay, conditions: human NK1 receptor, IM9 cells, [125I]Bolton-Hunter substance P; read-out: IC50 (nM) hNK1
In the case of `CC(Cc1c[nH]c2ccccc12)(NCc1cc2ccccc2o1)C(=O)NC1(CO)CCCC1` (stereo not shown) [compound 144, 2-[(Benzofuran-2-ylmethyl)-amino]-N-(1-hydroxymethyl-cyclopentyl)-3-(1H-indol-3-yl)-2-methyl-propionamide], the IC50 is reported as greater than 10000 nM.
With `CC(Cc1c[nH]c2ccccc12)(NCc1cc2ccccc2o1)C(=O)NCc1ccc(OC(F)(F)F)cc1` (stereo not shown) [compound 66, 2-[(Benzofuran-2-ylmethyl)-amino]-3-(1H-indol-3-yl)-2-methyl-N-(4-trifluoromethoxy-benzyl)-propionamide] the IC50 was 3440 nM.
`CC(Cc1c[nH]c2ccccc12)(NCc1cc2ccccc2o1)C(=O)NCc1cccc([N+](=O)[O-])c1` (stereo not shown) [compound 112, 2-[(Benzofuran-2-ylmethyl)-amino]-3-(1H-indol-3-yl)-2-methyl-N-(3-nitro-benzyl)-propionamide] gave an IC50 of 12 nM.
Work on `CC(Cc1c[nH]c2ccccc12)(NCc1cc2ccccc2o1)C(=O)NCCc1ccccn1` (stereo not shown) [compound 45, 2-[(Benzofuran-2-ylmethyl)-amino]-3-(1H-indol-3-yl)-2-methyl-N-(2-pyridin-2-yl-ethyl)-propionamide] yielded an IC50 of 913 nM.
`CC(Cc1c[nH]c2ccccc12)(NCc1cc2ccccc2o1)C(=O)NCCCN1CCCC1=O` (stereo not shown) [compound 91] was tested, and the IC50 was greater than 10000 nM.
In the case of `CC(NC(=O)C(C)(Cc1c[nH]c2ccccc12)NCc1cc2ccccc2o1)C(C)(C)C` (stereo not shown) [compound 82, 2-[(Benzofuran-2-ylmethyl)-amino]-3(1H-indol-3-yl)-2-methyl-N-(1,2,2-trimethyl-propyl)-propionamide], the IC50 is reported as 1140 nM.
With `CC(Cc1c[nH]c2ccccc12)(NCc1cc2ccccc2o1)C(=O)NCC(CC(=O)O)c1ccccc1` (stereo not shown) [compound 152, 4-[2-[(Benzofuran-2-ylmethyl)-amino]-3-(1H-indol-3-yl)-2-methyl-propionylamino]-3-phenyl-butyric acid] the IC50 was greater than 10000 nM.
With `CC(NC(=O)C(C)(Cc1c[nH]c2ccccc12)NCc1cc2ccccc2o1)c1ccccn1` (stereo not shown) [compound 69, 2-[(Benzofuran-2-ylmethyl)-amino]-3-(1H-indol-3-yl)-2-methyl-N-(1-pyridin-2-yl-ethyl)-propionamide] the IC50 was 12 nM.
Work on `CC(Cc1c[nH]c2ccccc12)(NCc1cc2ccccc2o1)C(=O)NCCN1CCOCC1` (stereo not shown) [compound 128, 2-[(Benzofuran-2-ylmethyl)-amino]-3-(1H-indol-3-yl)-2-methyl-N-(2-morpholin-4-yl-ethyl)-propionamide] yielded an IC50 greater than 10000 nM.
Work on `CC(Cc1c[nH]c2ccccc12)(NCc1cc2ccccc2o1)C(=O)NCc1cccs1` (stereo not shown) [compound 137, 2-[(Benzofuran-2-ylmethyl)-amino]-3-(1H-indol-3-yl)-2-methyl-N-thiophen-2-ylmethyl-propionamide] yielded an IC50 of 100 nM.
`CC(Cc1c[nH]c2ccccc12)(NCc1cc2ccccc2o1)C(=O)NC1CCc2ccccc21` (stereo not shown) [compound 130, 2-[(Benzofuran-2-ylmethyl)-amino]-N-indan-1-yl-3-(1H-indol-3-yl)-2-methyl-propionamide] gave an IC50 of 163 nM.
`CC(Cc1c[nH]c2ccccc12)(NCc1cc2ccccc2o1)C(=O)NCc1ccc(Cl)cc1F` (stereo not shown) [compound 177, 2-[(Benzofuran-2-ylmethyl)-amino]-N-(4-chloro-2-fluoro-benzyl)-3-(1H-indol-3-yl)-2-methyl-propionamide] showed an IC50 of 444 nM.
For `CC(Cc1c[nH]c2ccccc12)(NCc1cc2ccccc2o1)C(=O)NCc1ccc(Cl)cc1Cl` (stereo not shown) [compound 46, 2-[(Benzofuran-2-ylmethyl)-amino]-N-(2,4-dichloro-benzyl)-3-(1H-indol-3-yl)-2-methyl-propionamide], the IC50 was 1560 nM.
For `CC(Cc1c[nH]c2ccccc12)(NCc1cc2ccccc2o1)C(=O)NCc1cnc(N)nc1N` (stereo not shown) [compound 179, 2-[(Benzofuran-2-ylmethyl)-amino]-N-(2,4-diamino-pyrimidin-5-ylmethyl)-3-(1H-indol-3-yl)-2-methyl-propionamide], the IC50 was 5920 nM.
